Data published in EP4700040A1, “PEPTIDE AND LUMINESCENT COMPLEX CONTAINING SAME” (Shenzhen Loggene Life Science & Technology Co., Ltd., priority 2023, dated 2024).

How the values were obtained:
Format in all cases: biochemical, human
PCT [1] = assay: Luciferase dual-antibody complementary activation assay for PCT detection, clone supernatants, retest with CTZ-h (Example 1); settings: for Signal-to-noise ratio: RLU antigen+/RLU antigen-, MBP-PCT 3.3 ng/ml, CTZ-h; for PCT+: luminescence signal value with MBP-PCT 3.3 ng/ml, large subunit-rSCFV5 50 nM, supernatant; for PCT+ / PCT-: retest CTZ-h 25 µM, read after 60 s; for PCT-: luminescence signal value, background control PBSAD without PCT
Protocol: In order to improve the signal-to-noise ratio and complementary activity of the luciferase dual-antibody complementary activation assay, a series of complementary luciferase small subunits were prepared in this example. Large subunit-rSCFV5 fusion protein (SEQ ID NO: 87) was kept unchanged, and the small subunit sequence of the rSCFV18-small subunit P114 fusion protein (SEQ ID NO: 88) was modified by semi-randomization to prepare rSCFV18-small subunit mutant fusion proteins. Based on the sequence of small subunit P114, and with reference to the 3D structure of complementary luciferase, computer-aided sequence design was employed to generate a library with a theoretical diversity of 2.49*10^6. Primers were designed for PCR amplification using the plasmid pComb3x of rSCFV18-small subunit P114 fusion protein as a template. Subsequently, an expression vector library was constructed by means of restriction digestion and ligation (SfiI, NheI), and a semi-random amino acid mutation library was introduced into the small subunit position and transformed into HB2151 competent cells, yielding a library capacity of 7.6*10^9. The 100 plates were spread, and 9,500 single clones were picked and inoculated into 600 µL of 2YTA medium, followed by incubation at 37°C with shaking at 250 rpm for 2 h. When the bacterial density reached approximately OD600 = 0.6~1.0, IPTG was then added to a final concentration of 1 mM, and the culture was further incubated at 30°C with shaking at 250 rpm for 20 h. The next day, the bacteria were collected by centrifugation at 4°C, 4,500g for 10min. The supernatant was discarded, and the precipitate was resuspended with 200µl of PBS containing polymyxin B at a final concentration of 20,000 u/ml. The suspension was incubated at room temperature with shaking at 100rpm for 1h, and then centrifuged at 4500g for 10min, and the supernatant was used for the test.
Test Methods: • (1) The concentration of large subunit-rSCFV5 fusion protein was diluted to 50 nM, and 15 µl was added per well; • (2) MBP-PCT fusion protein was diluted to 3.3 ng/ml with PBSAD, and 15 µl was added per well. The background control was PBSAD, and 10 µl was added per well; • (3) HB2151 strain containing expression plasmids with different small subunit were induced by 1 mM of IPTG at 30°C overnight, then treated with polymyxin B for 1.5 h, and centrifuged to collect the supernatant, and 2.5 µl supernatant was added per well; • (4) The above three components were slightly mixed, incubated at 37°C for 7 min, and Obuffer 6.37-3 containing Furimazine at a concentration of 25 µM was added, and after 80 s, the luminescence signal value was detected using a bioluminescence detector; and • (5) Clones with RLU higher than 10,000 and a signal-to-noise ratio (RLU antigen+/RLU antigen-) higher than that of the rSCFV18-small subunit P114 fusion protein were selected for retesting. The substrate was replaced with CTZ-h for retesting. Obuffer 6.37-3 containing CTZ-h at a concentration of 25 µM was added, and after 60 s, the luminescence signal value was detected using a bioluminescence detector.

PCT [2] = assay: Complementation of purified rSCFV18-small subunit mutant fusion protein with large subunit-rSCFV5 fusion protein, PCT gradient (Example 2); settings: for luminescence value: CTZ-h 25 µM, 20 s; for Signal-to-noise ratio at 1000 pg/ml: PCT 1000 pg/ml versus 0
Protocol: Protein expression and purification of small subunit mutants: The strains containing plasmids of different small subunits inTable 2, prepared in Example 1, were inoculated into 200ml of 2YTA medium and cultured at 37°C with shaking at 250 rpm for about 3h. When the OD600 reached 1.0, IPTG was added to a final concentration of 1mM, and the culture was further incubated at 30°C with shaking at 250rpm for 20h. The culture were centrifuged at 5,000g for 10min, and the precipitate was resuspended with 10ml of PBS, added with polymyxin B to 20,000u/ml. The suspension was inverted and mixed at room temperature for 1h, and centrifuged at 10,000g to collect the supernatant. The rSCFV18-small subunit mutant fusion protein was purified according to the standard procedure for his-tag protein purification using Ni-NTA resin.
In the same tube, the large subunit-rSCFV5 fusion protein was diluted with PBSA to 50 nM; rSCFV18-small subunit mutant fusion protein was diluted to 90 nM, mixed well, and then 22 µl was added per well; the MBP-PCT fusion protein was diluted in 3-fold gradient with PBSAD (in pg/ml), with 8 gradients in total, 10µl was added per well, and the background control was PBSAD and 10 µl was added per well; the plate was mixed with slight shaking and incubated at 37°C for 6 min, 50 µl of Obuffer 6.37-3 containing 25 µM of CTZ-h then was added, and after 20 s, the luminescence value was detected.

PCT [3] = assay: Signal-to-noise ratio and linear range for PCT detection, purified fusion proteins (Example 3); set-up: key to luminescence value: luminescence normalized against the background value; settings: for Signal-to-noise ratio at 1000 pg/ml: large subunit 100 nM, small subunit fusion 180 nM, CTZ-h 25 µM, 140 s
Protocol: Test Methods: • (1) MBP-PCT protein was diluted with PBSAD in 10-fold gradient starting from 100 ng/ml, with 8 gradients in total, and 10 µl was added per well; • (2) The large subunit-SCFV5 fusion protein was diluted with PBSA to 100 nM, and 10 µl was added per well; • (3) Different rSCFV18-small subunit mutant fusion proteins were diluted with PBSA to 180 nM, and 10 µl of each was added per well; • (4) The plate was mixed slightly and incubated at 37°C for 10 min; and • (5) 50 µl of Obuffer 6.37-3 containing 25 µM of CTZ-h was added, and after 140 s, the luminescence value was detected. The results are shown after normalization against the background value.

PCT [4] = assay: as above; set-up: key: luminescence normalized against the background value; settings: PCT 3.3 (pg/ml); normalized against the background value
[5] = PCT 0 pg/ml (background control PBSAD)
[6] = PCT 1000 pg/ml, large subunit 50 nM, small subunit fusion 90 nM
[7] = PCT 100 (pg/ml), normalized against the background value
[8] = PCT 1000 (pg/ml), normalized against the background value
[9] = PCT 10000 (pg/ml), normalized against the background value
[10] = PCT 100000 (pg/ml), normalized against the background value

Sequence	Signal-to-noise ratio (PCT [1])	PCT+ (PCT [1])	PCT- (PCT [1])	luminescence value (PCT [2]; [5])	luminescence value (PCT [2]; PCT 1.37 pg/ml)	luminescence value (PCT [2]; PCT 4.12 pg/ml)	luminescence value (PCT [2]; PCT 12.35 pg/ml)	luminescence value (PCT [2]; PCT 37.04 pg/ml)	luminescence value (PCT [2]; PCT 111.1 pg/ml)	luminescence value (PCT [2]; PCT 333.3 pg/ml)	Signal-to-noise ratio at 1000 pg/ml (PCT [2])	luminescence value (PCT [2]; [6])	luminescence value (PCT [3]; PCT 0, background, normalized)	luminescence value (PCT [3]; [7])	luminescence value (PCT [3]; [8])	luminescence value (PCT [3]; [9])	luminescence value (PCT [3]; [10])	Signal-to-noise ratio at 1000 pg/ml (PCT [3])	luminescence value (PCT [4])	signal-to-noise ratios in luciferase dual-antibody complementary activation for PCT detection (PCT [3]; statement in words on Table 3 and Figure 2)
VTGYRLFEEIL [P114, reference compound]	12.2	5058	414	333	398	383	400	435	495	656	1.44	1256	5000	7073	18839	129750	642399	3.8	4789	–
VEGYRLFDRKS [RB073]	48	46672	953	412	358	475	591	1013	2302	5886	38.9	16026	5000	12151	72352	566678	1966617	14.5	5283	higher signal-to-noise ratios
